Reference: patent US20020072127A1, “Assay of chemical binding” (priority 2000, published 2002)

Assay: Micro-cantilever deflection on ligand-receptor binding (biotin-coated micro-cantilever immersed in water in small vessel)
Description: Referring to FIG. 1, a micro-cantilever 10 is fixed at one end to a block 12. The micro-cantilever 10 is generally V-shaped in plan, comprising two converging strips 13,14, which are integral with a transverse cross strip 15. It projects 0.2 mm from the block 12, the strips 13 and 14 each being 24 microns wide and the entire micro-cantilever 10 is of silicon nitride of thickness 0.6 microns. The top surface of the micro-cantilever 10 is coated with a 5 nm layer of chromium followed by a 13 nm layer of gold, to improve its optical reflectivity. The gold on one strip 13 is then coated with octadecanethiol, which forms a self-assembled, highly ordered monolayer on gold, and biotin is then bonded to this monolayer. Biotin acts as a selective receptor for avidin.
Referring now to FIG. 2 any deflection or twisting of the micro-cantilever 10 is detected optically, by focusing a light beam from a laser diode 16 onto the cross strip 15, and detecting the reflection with a quadrant photodiode 18. The light intensities detected by the four segments of the photodiodo 19 may be used to determine the deflection of the cross strip 15. If the micro-cantilever 10 is exposed to a solution of avidin, which binds to the biotin, this changes the surface stress of the strip 13, causing the micro-cantilever 10 to twist, so changing the inclination of the cross strip 15.
The time at which the avidin is injected is indicated by the arrow A. Before this time the deflection is substantially constant. The gradual change in deflection over a period of about five minutes, the deflection then reaching a new, steady value differing by h from its initial value. The bending is caused by the surface stress change resulting from the reaction; the change in surface stress is, at least approximately, equal to the change of surface energy, which can be related to the concentration c or the ligand and the equilibrium constant K of the binding reaction onto the surface (i.e. ka/kd, where ka is the adsorption coefficient and kd is the desorption coefficient).

Substance	binding strength to biotin relative to immunoglobulin G (FIG. 5, avidin displaces bound immunoglobulin G)	further deflection of the micro-cantilever (FIG. 5, avidin injected (arrow Q) after IgG had bound to biotin, arbitrary units)	deflection of the micro-cantilever resulting from injection (FIG. 5, IgG injected first (arrow P), arbitrary units, steady value after several minutes)	deflection resulting from the initial injection (FIG. 6, concentration in vessel 0.047 μM, after about 10 minutes, arbitrary units)	deflection resulting from the second injection (FIG. 6, concentration raised to 0.068 μM, after a further 10 minutes, arbitrary units)
avidin	binds to biotin more strongly	about 200 units	–	–	–
immunoglobulin G	–	–	about 200 units	about 235 units	about 290 units
